# From ChEMBL document CHEMBL1201862, “PubChem BioAssay data set” (2004)
# Active and inactive are the calls of the source.
# Columns and labels:
# [1] = target: T1, Tyrosine-protein phosphatase non-receptor type 11 (Homo sapiens, UniProt Q06124); assay: SHP2 phosphatase inhibition, dose response, selectivity assay for STEP inhibitor project, biochemical (AID 602367); format: functional; details: read-out: IC50_Mean
# T1 sequence (Q06124 whole entry): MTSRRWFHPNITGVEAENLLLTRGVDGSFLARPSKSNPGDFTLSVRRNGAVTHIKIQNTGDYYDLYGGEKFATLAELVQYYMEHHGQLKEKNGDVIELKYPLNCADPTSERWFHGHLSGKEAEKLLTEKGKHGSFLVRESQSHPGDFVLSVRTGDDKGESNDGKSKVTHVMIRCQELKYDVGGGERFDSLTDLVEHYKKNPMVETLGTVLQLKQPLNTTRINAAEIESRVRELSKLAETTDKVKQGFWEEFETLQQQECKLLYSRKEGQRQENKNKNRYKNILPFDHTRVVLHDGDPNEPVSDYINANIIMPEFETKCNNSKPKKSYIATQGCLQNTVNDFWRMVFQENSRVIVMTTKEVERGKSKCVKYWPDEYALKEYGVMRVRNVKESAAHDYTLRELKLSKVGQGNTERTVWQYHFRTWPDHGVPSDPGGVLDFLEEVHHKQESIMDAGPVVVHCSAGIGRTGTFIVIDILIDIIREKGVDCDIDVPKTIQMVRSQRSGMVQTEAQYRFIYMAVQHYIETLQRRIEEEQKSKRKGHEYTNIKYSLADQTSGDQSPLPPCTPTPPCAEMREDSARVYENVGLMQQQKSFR
# [2] = target: T2, Tyrosine-protein phosphatase non-receptor type 5 (Homo sapiens, UniProt P54829); assay: STEP phosphatase inhibitors, confirmation, biochemical, fluorescence intensity, uHTS hits (AID 602372); format: functional; details: read-out: IC50_Mean
# T2 sequence (P54829 whole entry): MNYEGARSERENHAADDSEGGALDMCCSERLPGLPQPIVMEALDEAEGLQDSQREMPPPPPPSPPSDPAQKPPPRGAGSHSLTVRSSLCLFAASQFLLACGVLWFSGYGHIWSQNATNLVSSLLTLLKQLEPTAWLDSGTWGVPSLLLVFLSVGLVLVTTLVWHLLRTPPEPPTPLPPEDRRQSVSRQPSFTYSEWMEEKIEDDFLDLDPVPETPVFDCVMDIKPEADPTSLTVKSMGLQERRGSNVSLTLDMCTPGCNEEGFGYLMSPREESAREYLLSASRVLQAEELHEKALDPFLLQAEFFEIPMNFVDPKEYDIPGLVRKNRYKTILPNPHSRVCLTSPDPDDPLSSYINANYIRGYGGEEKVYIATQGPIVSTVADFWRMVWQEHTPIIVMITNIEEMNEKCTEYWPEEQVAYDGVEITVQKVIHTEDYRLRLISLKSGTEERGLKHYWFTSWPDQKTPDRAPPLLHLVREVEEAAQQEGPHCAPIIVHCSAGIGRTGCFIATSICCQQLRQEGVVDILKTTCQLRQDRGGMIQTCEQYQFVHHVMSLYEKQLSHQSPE
# [3] = target: T3, Dual specificity protein phosphatase 3 (Homo sapiens, UniProt P51452); assay: VHR phosphatase inhibition, dose response, selectivity assay for STEP inhibitor project, biochemical (AID 602374); format: functional; details: read-out: IC50_Mean
# [4] = target: T3, Dual specificity protein phosphatase 3; assay: VHR1 phosphatase inhibitors, biochemical (AID 1878)
# [5] = target: T4, Dual specificity protein phosphatase 6 (Rattus norvegicus, UniProt Q64346); assay: MKP-3 phosphatase inhibitors, primary screen, biochemical, rat enzyme, in vitro (AID 425)
# T4 sequence (Q64346 whole entry): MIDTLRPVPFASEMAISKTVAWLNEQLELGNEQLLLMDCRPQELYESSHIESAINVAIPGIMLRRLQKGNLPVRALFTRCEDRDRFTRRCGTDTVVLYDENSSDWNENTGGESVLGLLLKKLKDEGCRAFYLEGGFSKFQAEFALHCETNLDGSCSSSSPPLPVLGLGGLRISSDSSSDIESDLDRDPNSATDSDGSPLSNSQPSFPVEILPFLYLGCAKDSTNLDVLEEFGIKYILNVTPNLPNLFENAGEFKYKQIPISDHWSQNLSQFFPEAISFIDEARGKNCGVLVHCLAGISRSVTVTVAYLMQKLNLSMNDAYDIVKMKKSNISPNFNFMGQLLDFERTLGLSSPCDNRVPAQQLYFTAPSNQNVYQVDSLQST
# [6] = target: T3, Dual specificity protein phosphatase 3; assay: VHR1 phosphatase inhibitors, primary screen, biochemical, absorbance, uHTS (AID 1654)
# [7] = target: Peroxisome proliferator-activated receptor gamma/Nuclear receptor coactivator 2 (Homo sapiens, UniProt P37231); assay: (§1) TR-FRET dose response biochemical High Throughput Screening assay for agonists of the steroid receptor coactivator 2 (SRC-2) recruitment by the peroxisome proliferator-activated receptor gamma (PPAR gamma): non-selective agonists. [Related pubchem assays: 1297, 1032 ]; format: functional
# [8] = target: T5, Ubiquitin-conjugating enzyme E2 N (Homo sapiens, UniProt P61088); format: functional;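 further: Dose-response confirmation in a TR-FRET assay detecting UBC13-driven polyubiquitin chain formation, inhibition measured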
# T5 sequence (P61088 whole entry): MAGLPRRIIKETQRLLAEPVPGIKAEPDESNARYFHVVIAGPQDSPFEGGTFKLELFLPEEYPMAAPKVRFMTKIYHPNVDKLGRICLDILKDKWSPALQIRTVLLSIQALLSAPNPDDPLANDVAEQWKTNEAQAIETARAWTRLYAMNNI
# [9] = target: Peroxisome proliferator-activated receptor gamma/Nuclear receptor coactivator 1 (Homo sapiens, UniProt P37231); assay: as §1, with “1 (SRC-1)” for “2 (SRC-2)”, “assays (depositor defined):AID1300, AID1808, AID504735, AID631]” for “assays: 1297, 1032 ]”; format: protein assay
# [10] = target: Peroxisome proliferator-activated receptor gamma/Nuclear receptor coactivator 3 (Homo sapiens, UniProt P37231); assay: as §1, with “3 (SRC-3)” for “2 (SRC-2)”, “1301 (Confirmation screen.), 1048 (Primary screen.)]” for “1297, 1032 ]”; format: functional
# [11] = target: T6, Voltage-gated N-type calcium channel alpha-1B subunit/Amyloid beta A4 precursor protein-binding family A member 1 (Homo sapiens, UniProt Q00975+Q02410); assay: disruptors of Mint-PDZ/N-type channel peptide interaction – biochemical, HTRF, set 2, SAR follow-up (AID 434980); format: functional
# SUMO E1/E2 = SUMO E1/E2 (Homo sapiens, UniProt P63279+Q9UBE0+Q9UBT2); assay: SAR analysis of SUMOylation using HTRF in an in-Vitro dose response assay. [Related pubchem assays (depositor defined):AID2006, AID2011, AID2018, AID2069, AID2658]; format: functional
# [12] = target: T6, Voltage-gated N-type calcium channel alpha-1B subunit/Amyloid beta A4 precursor protein-binding family A member 1; assay: disruptors of Mint-PDZ/N-type channel peptide interaction – biochemical, HTRF, SAR follow-up (AID 2489); format: functional
# [13] = target: Intestinal-type alkaline phosphatase (Mus musculus, UniProt P24822); assay: PubChem AID 488785; format: functional
# [14] = target: Intestinal-type alkaline phosphatase (Homo sapiens, UniProt P09923); assay: inhibition of human intestinal alkaline phosphatase – biochemical, dose response (AID 488876); format: functional
# [15] = target: T7, Alkaline phosphatase, tissue-nonspecific isozyme (Homo sapiens, UniProt P05186); assay: TNAP enzyme inhibition by screening hits, dose response, selectivity assay for mouse IAP inhibitor project, biochemical, human TNAP, uHTS hits (AID 488906); format: functional
# T7 sequence (P05186 whole entry): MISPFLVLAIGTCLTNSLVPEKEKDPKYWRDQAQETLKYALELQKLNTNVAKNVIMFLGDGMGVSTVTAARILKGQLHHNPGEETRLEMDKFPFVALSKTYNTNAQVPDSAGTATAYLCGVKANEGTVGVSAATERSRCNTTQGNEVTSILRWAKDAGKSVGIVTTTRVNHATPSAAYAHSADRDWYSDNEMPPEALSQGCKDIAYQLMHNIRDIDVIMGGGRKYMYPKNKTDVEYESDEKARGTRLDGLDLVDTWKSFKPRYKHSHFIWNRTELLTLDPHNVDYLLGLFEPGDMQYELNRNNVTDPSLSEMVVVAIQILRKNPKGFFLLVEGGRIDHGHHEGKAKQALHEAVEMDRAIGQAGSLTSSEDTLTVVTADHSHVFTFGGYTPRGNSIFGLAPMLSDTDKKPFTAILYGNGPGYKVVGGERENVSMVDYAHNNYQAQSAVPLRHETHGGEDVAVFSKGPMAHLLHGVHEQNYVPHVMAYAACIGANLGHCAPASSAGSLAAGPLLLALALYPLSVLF
# T3 sequence (P51452 whole entry): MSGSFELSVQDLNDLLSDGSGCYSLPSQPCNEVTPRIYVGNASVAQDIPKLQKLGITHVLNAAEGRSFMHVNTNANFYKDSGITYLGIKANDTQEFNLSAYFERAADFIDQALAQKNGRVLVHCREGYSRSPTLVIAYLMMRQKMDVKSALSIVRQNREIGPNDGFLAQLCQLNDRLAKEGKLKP
# T6 sequence (Q00975 whole entry): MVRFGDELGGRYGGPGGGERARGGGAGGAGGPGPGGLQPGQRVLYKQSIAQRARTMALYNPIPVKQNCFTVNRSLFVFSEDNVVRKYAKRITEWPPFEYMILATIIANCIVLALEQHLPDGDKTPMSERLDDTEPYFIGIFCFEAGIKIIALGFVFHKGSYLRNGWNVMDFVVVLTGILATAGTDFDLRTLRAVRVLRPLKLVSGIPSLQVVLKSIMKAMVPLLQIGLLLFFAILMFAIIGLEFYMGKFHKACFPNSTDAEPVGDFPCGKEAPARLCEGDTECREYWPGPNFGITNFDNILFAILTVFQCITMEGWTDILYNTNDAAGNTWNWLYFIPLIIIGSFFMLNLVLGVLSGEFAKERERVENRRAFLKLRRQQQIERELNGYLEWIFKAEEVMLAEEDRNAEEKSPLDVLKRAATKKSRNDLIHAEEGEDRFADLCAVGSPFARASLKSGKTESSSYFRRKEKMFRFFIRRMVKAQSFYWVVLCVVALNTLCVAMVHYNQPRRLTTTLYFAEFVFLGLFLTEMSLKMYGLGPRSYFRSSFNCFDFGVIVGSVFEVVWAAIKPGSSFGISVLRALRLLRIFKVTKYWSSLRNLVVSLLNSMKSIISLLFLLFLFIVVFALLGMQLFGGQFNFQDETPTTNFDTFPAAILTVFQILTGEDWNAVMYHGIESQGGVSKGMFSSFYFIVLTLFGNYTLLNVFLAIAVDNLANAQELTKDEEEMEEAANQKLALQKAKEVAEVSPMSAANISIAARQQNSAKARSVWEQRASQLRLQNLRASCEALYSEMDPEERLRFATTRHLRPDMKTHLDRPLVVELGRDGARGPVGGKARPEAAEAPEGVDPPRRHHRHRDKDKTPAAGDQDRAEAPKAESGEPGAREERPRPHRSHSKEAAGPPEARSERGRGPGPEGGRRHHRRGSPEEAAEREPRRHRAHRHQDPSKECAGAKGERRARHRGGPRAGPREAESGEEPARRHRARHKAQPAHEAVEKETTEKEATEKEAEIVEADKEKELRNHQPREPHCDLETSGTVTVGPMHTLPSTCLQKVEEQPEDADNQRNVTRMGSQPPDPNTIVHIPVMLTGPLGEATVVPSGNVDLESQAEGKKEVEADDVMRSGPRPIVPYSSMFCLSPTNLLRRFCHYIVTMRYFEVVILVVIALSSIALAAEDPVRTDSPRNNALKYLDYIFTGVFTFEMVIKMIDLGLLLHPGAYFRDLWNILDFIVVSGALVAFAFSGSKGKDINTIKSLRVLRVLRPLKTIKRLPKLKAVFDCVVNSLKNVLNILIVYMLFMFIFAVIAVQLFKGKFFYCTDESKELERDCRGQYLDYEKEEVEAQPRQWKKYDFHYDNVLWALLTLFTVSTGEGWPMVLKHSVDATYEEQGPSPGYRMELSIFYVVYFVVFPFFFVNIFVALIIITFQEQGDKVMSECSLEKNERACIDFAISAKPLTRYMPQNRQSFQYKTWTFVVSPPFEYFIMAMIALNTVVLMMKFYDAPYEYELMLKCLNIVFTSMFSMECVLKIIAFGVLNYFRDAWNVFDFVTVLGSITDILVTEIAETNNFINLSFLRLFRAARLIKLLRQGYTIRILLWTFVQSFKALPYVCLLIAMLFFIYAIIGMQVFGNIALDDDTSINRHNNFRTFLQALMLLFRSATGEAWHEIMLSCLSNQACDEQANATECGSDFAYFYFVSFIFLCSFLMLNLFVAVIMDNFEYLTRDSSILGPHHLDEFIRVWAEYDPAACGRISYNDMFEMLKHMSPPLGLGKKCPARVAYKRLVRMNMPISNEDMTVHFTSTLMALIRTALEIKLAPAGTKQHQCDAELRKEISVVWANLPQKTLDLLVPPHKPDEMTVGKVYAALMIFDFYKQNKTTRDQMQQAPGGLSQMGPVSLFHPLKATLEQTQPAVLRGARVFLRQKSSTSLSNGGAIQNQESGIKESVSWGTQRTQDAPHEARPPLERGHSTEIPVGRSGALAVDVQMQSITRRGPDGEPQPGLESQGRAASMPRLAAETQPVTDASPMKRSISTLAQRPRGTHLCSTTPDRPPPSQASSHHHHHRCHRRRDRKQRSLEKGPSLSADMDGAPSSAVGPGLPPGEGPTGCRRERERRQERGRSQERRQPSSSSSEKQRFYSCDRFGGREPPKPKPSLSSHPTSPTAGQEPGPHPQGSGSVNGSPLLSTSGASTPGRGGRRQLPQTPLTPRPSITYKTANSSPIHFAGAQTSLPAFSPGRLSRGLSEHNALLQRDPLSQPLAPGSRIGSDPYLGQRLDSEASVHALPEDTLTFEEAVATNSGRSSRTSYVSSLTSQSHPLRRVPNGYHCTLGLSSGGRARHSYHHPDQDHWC
# T6 sequence (Q02410 whole entry): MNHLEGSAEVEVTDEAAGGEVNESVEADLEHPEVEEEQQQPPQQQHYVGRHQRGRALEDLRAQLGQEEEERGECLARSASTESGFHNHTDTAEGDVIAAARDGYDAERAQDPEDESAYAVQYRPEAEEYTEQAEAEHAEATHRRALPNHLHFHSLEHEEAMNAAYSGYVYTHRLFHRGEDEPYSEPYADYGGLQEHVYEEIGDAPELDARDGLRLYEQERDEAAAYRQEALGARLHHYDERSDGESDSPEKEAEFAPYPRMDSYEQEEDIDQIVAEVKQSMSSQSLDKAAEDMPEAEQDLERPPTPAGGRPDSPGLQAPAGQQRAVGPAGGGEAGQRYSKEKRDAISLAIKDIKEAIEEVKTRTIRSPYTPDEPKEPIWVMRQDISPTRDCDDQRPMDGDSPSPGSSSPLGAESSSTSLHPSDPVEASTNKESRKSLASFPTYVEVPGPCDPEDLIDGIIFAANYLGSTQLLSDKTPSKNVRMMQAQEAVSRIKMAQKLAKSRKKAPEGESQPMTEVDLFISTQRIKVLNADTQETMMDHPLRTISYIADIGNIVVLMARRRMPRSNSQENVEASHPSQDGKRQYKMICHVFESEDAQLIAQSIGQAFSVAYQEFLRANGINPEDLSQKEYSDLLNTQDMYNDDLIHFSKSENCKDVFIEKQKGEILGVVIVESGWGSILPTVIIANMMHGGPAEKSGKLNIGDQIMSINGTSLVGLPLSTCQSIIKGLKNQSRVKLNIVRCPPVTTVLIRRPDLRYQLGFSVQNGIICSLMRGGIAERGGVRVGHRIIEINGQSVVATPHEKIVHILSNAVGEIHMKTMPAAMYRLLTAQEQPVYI
# Sequence of SUMO E1/E2 (Q9UBE0 whole entry): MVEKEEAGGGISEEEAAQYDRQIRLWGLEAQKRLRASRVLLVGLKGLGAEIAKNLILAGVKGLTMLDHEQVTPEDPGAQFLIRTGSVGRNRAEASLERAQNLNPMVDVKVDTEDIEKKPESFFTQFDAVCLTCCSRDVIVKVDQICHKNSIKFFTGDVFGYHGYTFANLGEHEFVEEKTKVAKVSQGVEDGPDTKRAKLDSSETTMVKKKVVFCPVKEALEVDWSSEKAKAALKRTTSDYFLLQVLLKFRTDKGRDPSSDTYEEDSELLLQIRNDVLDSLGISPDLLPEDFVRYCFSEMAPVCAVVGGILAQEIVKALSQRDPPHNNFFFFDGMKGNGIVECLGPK
# Sequence of SUMO E1/E2 (Q9UBT2 whole entry): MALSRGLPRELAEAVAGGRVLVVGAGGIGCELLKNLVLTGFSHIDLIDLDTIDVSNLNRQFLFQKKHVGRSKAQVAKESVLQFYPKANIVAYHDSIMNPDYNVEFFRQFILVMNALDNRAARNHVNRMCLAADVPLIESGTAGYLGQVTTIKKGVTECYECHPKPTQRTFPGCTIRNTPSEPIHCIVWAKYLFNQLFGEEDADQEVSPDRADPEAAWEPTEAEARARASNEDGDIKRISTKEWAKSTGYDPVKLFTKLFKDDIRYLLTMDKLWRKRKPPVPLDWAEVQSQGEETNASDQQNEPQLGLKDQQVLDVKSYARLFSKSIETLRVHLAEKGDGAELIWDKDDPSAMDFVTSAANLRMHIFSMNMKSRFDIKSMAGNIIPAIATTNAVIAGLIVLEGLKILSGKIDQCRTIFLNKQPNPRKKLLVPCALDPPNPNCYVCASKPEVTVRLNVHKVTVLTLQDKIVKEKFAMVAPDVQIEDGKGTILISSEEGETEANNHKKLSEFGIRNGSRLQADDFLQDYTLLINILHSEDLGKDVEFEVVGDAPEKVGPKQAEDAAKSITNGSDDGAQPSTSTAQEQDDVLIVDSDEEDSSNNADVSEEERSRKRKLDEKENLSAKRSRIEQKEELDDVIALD
# Sequence of SUMO E1/E2 (P63279 whole entry): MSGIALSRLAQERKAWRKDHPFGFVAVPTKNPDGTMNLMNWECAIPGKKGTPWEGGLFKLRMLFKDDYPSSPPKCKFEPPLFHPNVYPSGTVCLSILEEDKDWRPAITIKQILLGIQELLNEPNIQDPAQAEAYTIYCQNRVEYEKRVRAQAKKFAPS
# Sequence of Intestinal-type alkaline phosphatase (Mus musculus, UniProt P24822) (P24822 whole entry): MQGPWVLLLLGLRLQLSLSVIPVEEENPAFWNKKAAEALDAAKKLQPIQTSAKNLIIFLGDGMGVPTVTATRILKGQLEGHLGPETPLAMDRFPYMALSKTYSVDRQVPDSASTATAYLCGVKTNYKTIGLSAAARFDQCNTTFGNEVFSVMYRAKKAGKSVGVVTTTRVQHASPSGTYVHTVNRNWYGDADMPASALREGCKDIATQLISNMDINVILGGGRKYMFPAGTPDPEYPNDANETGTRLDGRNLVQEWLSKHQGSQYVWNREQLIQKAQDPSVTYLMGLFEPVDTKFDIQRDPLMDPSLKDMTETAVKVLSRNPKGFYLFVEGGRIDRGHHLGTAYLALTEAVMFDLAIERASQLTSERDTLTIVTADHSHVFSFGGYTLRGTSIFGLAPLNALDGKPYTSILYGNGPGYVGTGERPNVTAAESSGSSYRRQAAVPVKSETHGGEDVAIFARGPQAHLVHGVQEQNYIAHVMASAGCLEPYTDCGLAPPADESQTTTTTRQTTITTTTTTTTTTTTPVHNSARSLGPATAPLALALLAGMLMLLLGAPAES
structure (smiles),measurement,setting,value
NC(=O)C1(N2CCCCC2)CCN(C(=S)Nc2ccc(S(N)(=O)=O)cc2)CC1,IC50,[1],2 µM (active)
same,IC50,[2],11.6 µM (active)
same,IC50,[3],0.811 µM (active)
same,IC50,[4],3.38 µM (active)
same,IC50,[5],> 158 µM (not active)
same,IC50,[6],1.86 µM (active)
COc1ccc(-c2c3c(nc4sc(C(=O)Nc5ccccc5)c(N)c24)CCC3)cc1,EC50,[7],> 79.4 µM (not active)
same,IC50,[8],> 20 µM (inactive)
same,EC50,[9],> 79.4 µM (inactive)
same,EC50,[10],> 79.4 µM (not active)
COc1ccccc1CCNC(=O)COC(=O)c1cc(-c2ccco2)nc2ccccc12,IC50,[11],17.4 µM (active)
same,IC50,SUMO E1/E2,25.3 µM (active)
same,IC50,[12],28.5 µM (active)
COc1cccc(NC(=O)CN(C)S(=O)(=O)c2ccc3nc(O)oc3c2)c1,IC50,[13],4.03 µM (active)
same,IC50,[14],> 100 µM (inactive)
same,IC50,[15],> 100 µM (inactive)
COc1ccc(CNC(=O)c2cc(-c3ccco3)nc3ccccc23)cc1,IC50,[11],20.3 µM (active)
same,IC50,SUMO E1/E2,2.61 µM (active)
same,IC50,[12],> 56.8 µM (inactive)
